Laboratory results as given in patent publication US6737383B1, “Herbicidal oxadiazolidines” (priority 1999, dated 2004).

Experiments:
[1] = test system: velvetleaf; assay: Test B pre/postemergence velvetleaf; assay type: in vivo, Abutilon theophrasti; conditions: for Plant response rating, Velvetleaf: Rate 250 g/ha
How it was run: (§1)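 Test chemicals in a non-phytotoxic solvent mixture with surfactant were sprayed preemergence onto planted seeds and postemergence onto plants 2 to 18 cm tall (1- to 4-leaf stage). After twelve to sixteen days in a greenhouse, injury was visually rated against untreated controls from 0 (no effect) to 10 (complete control).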

[2] = test system: rice; assay: Test B flood test rice; assay type: in vivo, Oryza sativa
How it was run: (§2)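 Plants were grown to the 2-leaf stage before treatment with test chemical, then held in a greenhouse for twelve to sixteen days. Injury was visually rated against untreated controls on a 0–10 scale, where 0 is no effect and 10 is complete control.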

[3] = test system: soybean; assay: Test B pre/postemergence soybean; assay type: in vivo, Glycine max
How it was run: as §1

[4] = test system: rape; assay: Test B pre/postemergence rape; assay type: in vivo, Brassica napus
How it was run: as §1

[5] = test system: wheat; assay: Test B pre/postemergence wheat; assay type: in vivo, Triticum aestivum; conditions: for Plant response rating, Wheat: Rate 250 g/ha
How it was run: as §1

[6] = test system: morningglory; assay: Test B pre/postemergence morningglory; assay type: in vivo, Ipomoea hederacea
How it was run: as §1

[7] = test system: giant foxtail; assay: Test B pre/postemergence giant foxtail; assay type: in vivo, Setaria faberii
How it was run: as §1

[8] = test system: cocklebur; assay: Test B pre/postemergence cocklebur; assay type: in vivo, Xanthium strumarium
How it was run: as §1

[9] = test system: wild oat; assay: Test B pre/postemergence wild oat; assay type: in vivo, Avena fatua; conditions: for Plant response rating, Wild oats: Rate 250 g/ha
How it was run: as §1

[10] = test system: bedstraw; assay: Test B pre/postemergence bedstraw; assay type: in vivo, Galium aparine
How it was run: as §1

[11] = test system: pigweed; assay: Test B pre/postemergence pigweed; assay type: in vivo, Amaranthus retroflexus
How it was run: as §1

[12] = test system: corn; assay: Test B pre/postemergence corn; assay type: in vivo, Zea mays
How it was run: as §1

[13] = test system: sugar beet; assay: Test B pre/postemergence sugar beet; assay type: in vivo, Beta vulgaris; conditions: for Plant response rating, Sugarbeets: Rate 250 g/ha
How it was run: as §1

[14] = test system: blackgrass; assay: Test B pre/postemergence blackgrass; assay type: in vivo, Alopecurus myosuroides
How it was run: as §1

[15] = test system: surinam grass; assay: Test B pre/postemergence surinam grass; assay type: in vivo, Brachiaria decumbens
How it was run: as §1

[16] = test system: smallflower flatsedge; assay: Test B flood test smallflower flatsedge; assay type: in vivo, Cyperus difformis
How it was run: as §2

[17] = Postemergence, Rate 125 g/ha, scale of 0 to 10 where 0 is no effect and 10 is complete control
[18] = Preemergence, Rate 62 g/ha, scale 0 to 10 (0 no effect, 10 complete control)
[19] = Preemergence, Rate 125 g/ha, 0 is no effect, 10 is complete control
[20] = Preemergence, scale of 0 to 10 where 0 is no effect and 10 is complete control
[21] = Preemergence, Rate 500 g/ha, scale 0 to 10 (0 no effect, 10 complete control)
[22] = Rate 62 g/ha, Postemergence, scale of 0 to 10 where 0 is no effect and 10 is complete control
[23] = Postemergence, scale 0 to 10, 0 is no effect, 10 is complete control
[24] = Rate 500 g/ha, Postemergence, scale 0 to 10, 0 no effect, 10 complete control
[25] = Rate 250 g/ha, headed Pre-emergence (flood test species), scale 0 to 10 (0 no effect, 10 complete control)
[26] = Rate 500 g/ha, headed Pre-emergence (flood test species), scale 0 to 10 (0 no effect, 10 complete control)
[27] = Rate 2000 g/ha, Pre-emergence (as headed), scale 0 to 10
[28] = Preemergence, Rate 125 g/ha, scale 0 to 10 (0 no effect, 10 complete control)
[29] = Preemergence, Rate 250 g/ha, scale of 0 to 10 where 0 is no effect and 10 is complete control
[30] = Rate 250 g/ha, Postemergence, scale 0 to 10, 0 is no effect, 10 is complete control
[31] = Postemergence, Rate 250 g/ha, scale 0 to 10, 0 no effect, 10 complete control
[32] = Postemergence, Rate 62 g/ha, scale 0 to 10, 0 is no effect, 10 is complete control
[33] = Rate 125 g/ha, Postemergence, scale 0 to 10, 0 no effect, 10 complete control

CCn1c(=O)on(C(=O)N(c2ccc(F)cc2)C(C)C)c1=O [Compound 107]
Velvetleaf plant response rating [1, 17]: 5
Velvetleaf plant response rating [1, 18]: 7
Velvetleaf plant response rating (0 to 10 scale) [1, 19]: 10
Plant response rating, Velvetleaf [1, 20]: 10
Velvetleaf plant response rating [1, 21]: 10
Velvetleaf plant response rating [1, 22]: 4
Plant response rating, Velvetleaf [1, 23]: 5
Velvetleaf plant response rating [1, 24]: 7
Rice plant response rating [2, 25]: 0
Plant response rating, Rice [2, 26]: 0
Rice plant response rating ([2]; Rate 1000 g/ha, Pre-emergence (as headed), scale 0 to 10): 0
Rice plant response rating [2, 27]: 0
Soybean plant response rating [3, 17]: 4
Soybean plant response rating [3, 18]: 0
Plant response rating, Soybean [3, 28]: 3
Plant response rating, Soybean [3, 29]: 5
Soybean plant response rating [3, 21]: 8
Soybean plant response rating [3, 22]: 3
Plant response rating, Soybean [3, 30]: 4
Soybean plant response rating [3, 24]: 5
Rape plant response rating [4, 17]: 2
Rape plant response rating [4, 31]: 3
Rape plant response rating [4, 18]: 3
Plant response rating, Rape [4, 28]: 8
Plant response rating, Rape [4, 29]: 9
Rape plant response rating [4, 21]: 10
Rape plant response rating [4, 22]: 0
Rape plant response rating [4, 24]: 8
Wheat plant response rating [5, 17]: 5
Wheat plant response rating [5, 18]: 0
Wheat plant response rating (0 to 10 scale) [5, 19]: 5
Plant response rating, Wheat [5, 20]: 7
Wheat plant response rating [5, 21]: 8
Wheat plant response rating [5, 22]: 2
Plant response rating, Wheat [5, 23]: 7
Wheat plant response rating [5, 24]: 8
Morningglory plant response rating [6, 17]: 3
Morningglory plant response rating [6, 31]: 3
Morningglory plant response rating [6, 18]: 0
Plant response rating, Morningglory [6, 28]: 0
Plant response rating, Morningglory [6, 29]: 2
Morningglory plant response rating [6, 21]: 7
Morningglory plant response rating [6, 22]: 3
Morningglory plant response rating [6, 24]: 3
Giant foxtail plant response rating [7, 17]: 8
Giant foxtail plant response rating [7, 31]: 8
Giant foxtail plant response rating [7, 18]: 10
Plant response rating, Giant foxtail [7, 28]: 10
Plant response rating, Giant foxtail [7, 29]: 10
Giant foxtail plant response rating [7, 21]: 10
Giant foxtail plant response rating [7, 22]: 8
Giant foxtail plant response rating [7, 24]: 8
Cocklebur plant response rating [8, 17]: 0
Cocklebur plant response rating [8, 31]: 1
Cocklebur plant response rating [8, 18]: 0
Plant response rating, Cocklebur [8, 28]: 0
Plant response rating, Cocklebur [8, 29]: 0
Cocklebur plant response rating [8, 21]: 0
Cocklebur plant response rating [8, 22]: 0
Cocklebur plant response rating [8, 24]: 3
Wild oats plant response rating [9, 17]: 3
Wild oats plant response rating [9, 18]: 9
Wild oats plant response rating (0 to 10 scale) [9, 19]: 9
Plant response rating, Wild oats [9, 20]: 10
Wild oats plant response rating [9, 21]: 10
Wild oats plant response rating [9, 22]: 0
Plant response rating, Wild oats [9, 23]: 5
Wild oats plant response rating [9, 24]: 9
Bedstraw plant response rating [10, 32]: 2
Bedstraw plant response rating [10, 31]: 4
Bedstraw plant response rating [10, 18]: 2
Plant response rating, Bedstraw [10, 28]: 7
Plant response rating, Bedstraw [10, 29]: 10
Bedstraw plant response rating [10, 21]: 10
Bedstraw plant response rating [10, 33]: 3
Bedstraw plant response rating [10, 24]: 9
Redroot pigweed plant response rating [11, 17]: 0
Redroot pigweed plant response rating [11, 18]: 10
Plant response rating, Redroot pigweed [11, 28]: 10
Plant response rating, Redroot pigweed [11, 29]: 10
Redroot pigweed plant response rating [11, 21]: 10
Redroot pigweed plant response rating [11, 22]: 0
Plant response rating, Redroot pigweed [11, 30]: 5
Redroot pigweed plant response rating [11, 24]: 8
Corn plant response rating [12, 17]: 2
Corn plant response rating [12, 31]: 5
Corn plant response rating [12, 18]: 4
Plant response rating, Corn [12, 28]: 7
Plant response rating, Corn [12, 29]: 9
Corn plant response rating [12, 21]: 9
Corn plant response rating [12, 22]: 2
Corn plant response rating [12, 24]: 6
Sugarbeets plant response rating [13, 17]: 2
Sugarbeets plant response rating [13, 18]: 4
Sugarbeets plant response rating (0 to 10 scale) [13, 19]: 7
Plant response rating, Sugarbeets [13, 20]: 10
Sugarbeets plant response rating [13, 21]: 10
Sugarbeets plant response rating [13, 22]: 0
Plant response rating, Sugarbeets [13, 23]: 5
Sugarbeets plant response rating [13, 24]: 7
Blackgrass plant response rating [14, 17]: 7
Blackgrass plant response rating [14, 31]: 8
Blackgrass plant response rating [14, 18]: 9
Plant response rating, Blackgrass [14, 28]: 10
Plant response rating, Blackgrass [14, 29]: 10
Blackgrass plant response rating [14, 21]: 10
Blackgrass plant response rating [14, 22]: 7
Blackgrass plant response rating [14, 24]: 8
B. signalgrass plant response rating [15, 32]: 7
B. signalgrass plant response rating [15, 31]: 8
B. signalgrass plant response rating [15, 18]: 5
Plant response rating, B. signalgrass [15, 28]: 7
Plant response rating, B. signalgrass [15, 29]: 10
B. signalgrass plant response rating [15, 21]: 10
B. signalgrass plant response rating [15, 33]: 7
B. signalgrass plant response rating ([15]; Rate 500 g/ha, Postemergence, scale of 0 to 10 where 0 is no effect and 10 is complete control): 8
S. Flatsedge plant response rating ([16]; Pre-emergence, Rate 1000 g/ha, scale 0 to 10 (0 no effect, 10 complete control)): 0
S. Flatsedge plant response rating [16, 25]: 0
Plant response rating, S. Flatsedge [16, 26]: 0
S. Flatsedge plant response rating [16, 27]: 5
